Laboratory results taken from patent publication US6087334A, “Anti-diabetic peptides” (Amylin Pharmaceuticals, Inc., priority 1998, dated 2000).
Where a SMILES comes first, the peptide text is derived from it. Bridges are numbered along the chain shown (N, C = ends).

These compounds were tested against T1, C1a receptor (C1a-type calcitonin receptor) (Rattus norvegicus, UniProt P32214) (assay: biochemical). Settings: HEK293 plasma membranes, [35S]-GTPγS 200 pM; read-out: ED50 (nM) Example B (C1a GTPγS).
T1 construct: expressed in transfected cells
T1 sequence (P32214 25-479 isoform P32214-2 limits assumed): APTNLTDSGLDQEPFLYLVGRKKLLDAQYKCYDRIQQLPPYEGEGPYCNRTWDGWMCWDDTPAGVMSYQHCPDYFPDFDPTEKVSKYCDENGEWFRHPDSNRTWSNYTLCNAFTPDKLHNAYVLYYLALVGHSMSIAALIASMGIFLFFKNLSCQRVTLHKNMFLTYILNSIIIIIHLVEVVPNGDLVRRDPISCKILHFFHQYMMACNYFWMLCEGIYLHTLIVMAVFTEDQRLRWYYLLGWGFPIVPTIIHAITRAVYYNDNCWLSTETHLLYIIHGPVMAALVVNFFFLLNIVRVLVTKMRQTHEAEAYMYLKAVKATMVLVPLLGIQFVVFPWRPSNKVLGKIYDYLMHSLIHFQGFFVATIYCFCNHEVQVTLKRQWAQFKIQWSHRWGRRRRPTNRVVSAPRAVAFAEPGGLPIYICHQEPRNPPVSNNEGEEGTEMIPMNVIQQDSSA

Point of comparison: `CC(C)C[C@H](NC(=O)[C@H](CCCNC(=N)N)NC(=O)[C@H](C)NC(=O)[C@@H](NC(=O)[C@H](C)NC(=O)[C@@H]1CSSC[C@H](NC(=O)[C@@H](N)CCCCN)C(=O)N[C@@H](CC(N)=O)C(=O)N[C@@H]([C@@H](C)O)C(=O)N[C@@H](C)C(=O)N[C@@H]([C@@H](C)O)C(=O)N1)[C@@H](C)O)C(=O)N[C@@H](C)C(=O)N[C@@H](CC(N)=O)C(=O)N[C@@H](Cc1ccccc1)C(=O)N[C@@H](CC(C)C)C(=O)N[C@H](C(=O)N[C@@H](CCCNC(=N)N)C(=O)N[C@@H](CO)C(=O)N[C@@H](CO)C(=O)NCC(=O)N[C@@H](Cc1ccc(O)cc1)C(N)=O)C(C)C` [Example 5] (H-KCNTATCATARLANFLVRSSGY-NH2; disulfide 2-7), EC50 5.5 nM. Against it:
- CC(C)C[C@H](NC(=O)[C@H](CCCNC(=N)N)NC(=O)[C@H](C)NC(=O)[C@@H](NC(=O)[C@H](C)NC(=O)[C@@H]1CSSC[C@H](NC(=O)[C@@H](N)CCCCN)C(=O)N[C@@H](CC(N)=O)C(=O)N[C@@H]([C@@H](C)O)C(=O)N[C@@H](C)C(=O)N[C@@H]([C@@H](C)O)C(=O)N1)[C@@H](C)O)C(=O)N[C@@H](C)C(=O)N[C@@H](C)C(=O)N[C@@H](Cc1ccccc1)C(=O)N[C@@H](CC(C)C)C(=O)N[C@@H](C)C(=O)N[C@@H](CCCNC(=N)N)C(=O)N[C@@H](CO)C(=O)N[C@@H](CO)C(=O)NCC(=O)N[C@@H](Cc1ccc(O)cc1)C(N)=O [Example 1] (H-KCNTATCATARLAAFLARSSGY-NH2; disulfide 2-7) — 7.9-fold lower, 0.7 nM
- CC(C)C[C@H](NC(=O)[C@H](CCCNC(=N)N)NC(=O)[C@H](C)NC(=O)[C@@H](NC(=O)[C@H](C)NC(=O)[C@@H]1CSSC[C@H](N)C(=O)N[C@@H](CC(N)=O)C(=O)N[C@@H]([C@@H](C)O)C(=O)N[C@@H](C)C(=O)N[C@@H]([C@@H](C)O)C(=O)N1)[C@@H](C)O)C(=O)N[C@@H](C)C(=O)N[C@@H](C)C(=O)N[C@@H](Cc1ccccc1)C(=O)N[C@@H](CC(C)C)C(=O)N[C@@H](C)C(=O)N[C@@H](CCCNC(=N)N)C(=O)N[C@@H](CO)C(N)=O [Example 3] (H-CNTATCATARLAAFLARS-NH2; disulfide 1-6) — 4.6-fold lower, 1.2 nM
- CC(C)C[C@H](NC(=O)[C@H](CCCNC(=N)N)NC(=O)[C@H](C)NC(=O)[C@@H](NC(=O)[C@H](C)NC(=O)[C@H](C)NC(=O)[C@@H](NC(=O)[C@H](CO)NC(=O)[C@@H](N)CC(C)C)[C@@H](C)O)[C@@H](C)O)C(=O)N[C@@H](C)C(=O)N[C@@H](C)C(=O)N[C@@H](Cc1ccccc1)C(=O)N[C@@H](CC(C)C)C(=O)N[C@@H](C)C(=O)N[C@@H](CCCNC(=N)N)C(=O)N[C@@H](CO)C(N)=O [Example 6] (H-LSTAATARLAAFLARS-NH2) — 9.5-fold lower, 0.58 nM
